Experimental data from US10131652B2, “Pyrimidinyloxy benzene derivatives as herbicides” (E. I. DU PONT DE NEMOURS AND COMPANY, priority 2014, dated 2018).
Where two headings read alike, the source gives them in different places.

Tests used:
Type in all cases: in vivo
rice (Oryza sativa) [1] = experiment: Test D flooded paddy test plant response; conditions: Flood (flooded paddy test), visual rating on scale 0 to 100 (0 no effect, 100 complete control), 13 to 15 days
From the text: (§1) Plant species in the flooded paddy test consisted of rice (Oryza sativa), small-flower umbrella sedge (Cyperus difformis), ducksalad (Heteranthera limosa), and bamyardgrass (Echinochloa crus-galli) grown to the 2-leaf stage for testing. At time of treatment, test pots were flooded to 3 cm above the soil surface, treated by application of test compounds directly to the paddy water, and then maintained at that water depth for the duration of the test. Treated plants and controls were maintained in a greenhouse for 13 to 15 days, after which time all species were compared to controls and visually evaluated. Plant response ratings, summarized in Table D, are based on a scale of 0 to 100 where 0 is no effect and 100 is complete control. A dash (-) response means no test result.

[2] = test system: small-flower umbrella sedge (Cyperus difformis); experiment: Test D flooded paddy test plant response; conditions: Flood (flooded paddy test), visual rating on scale 0 to 100 (0 no effect, 100 complete control), 13 to 15 days
From the text: as §1

[3] = test system: ducksalad (Heteranthera limosa); experiment: Test D flooded paddy test plant response; conditions: Flood (flooded paddy test), visual rating on scale 0 to 100 (0 no effect, 100 complete control), 13 to 15 days
From the text: as §1

[4] = test system: barnyardgrass (Echinochloa crus-galli); experiment: Test D flooded paddy test plant response; conditions: Flood (flooded paddy test), visual rating on scale 0 to 100 (0 no effect, 100 complete control), 13 to 15 days
From the text: as §1

[5] = test system: wheat (Triticum aestivum); experiment: Test B pre-/postemergence plant response; conditions: for plant injury at 1000 g/ha: Triticum aestivum, 240 h, read-out: Plant response rating, Wheat
How it was run: (§2)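 Visual injury rating, 0 (no effect) to 100 (complete control), vs untreated controls after ~10 d greenhouse. Pre: directed soil spray after planting in loam/sand. Post: plants 2–10 cm, 1–2 leaf stage. Compound in non-phytotoxic solvent plus surfactant.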

[6] = test system: morningglory (Ipomoea spp.); experiment: Test B pre-/postemergence plant response; conditions: for pest or weed control at 1000 g/ha: Ipomoea, 240 h, read-out: Plant response rating, Morningglory
How it was run: as §2

[7] = test system: velvetleaf (Abutilon theophrasti); experiment: Test B pre-/postemergence plant response; conditions: for pest or weed control at 1000 g/ha: Abutilon theophrasti, 240 h, read-out: Plant response rating, Velvetleaf
How it was run: as §2

[8] = test system: giant foxtail (Setaria faberii); experiment: Test B pre-/postemergence plant response; conditions: for pest or weed control at 1000 g/ha: Setaria faberi, 240 h, read-out: Plant response rating, Foxtail, Giant
How it was run: as §2

corn (Zea mays) = experiment: Test B pre-/postemergence plant response; conditions: for Corn plant response rating (crop injury, 0 = no effect, 100 = complete kill) at 1000 g/ha: Zea mays, 240 h
How it was run: as §2

[9] = test system: large (Lg) crabgrass (Digitaria sanguinalis); experiment: Test B pre-/postemergence plant response; conditions: for pest or weed control at 1000 g/ha: Digitaria sanguinalis, 240 h, read-out: Plant response rating, Crabgrass, Large
How it was run: as §2

[10] = test system: barnyardgrass (Echinochloa crus-galli); experiment: Test B pre-/postemergence plant response; conditions: for pest or weed control at 1000 g/ha: Echinochloa crus-galli, 240 h, read-out: Plant response rating, Barnyardgrass
How it was run: as §2

[11] = test system: pigweed (Amaranthus retroflexus); experiment: Test B pre-/postemergence plant response; conditions: for pest or weed control at 1000 g/ha: Amaranthus retroflexus, 240 h, read-out: Plant response rating, Pigweed
How it was run: as §2

rice (Oryza sativa) [12] = experiment: Test C flooded paddy test plant response; conditions: Flood, 250 g ai/ha; scale of 0 to 100 where 0 is no effect and 100 is complete control; 13 to 15 days
How it was run: (§3)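 Visual injury ratings (0, no effect; 100, complete control) were assigned after 13 to 15 days in a greenhouse, comparing treated plants with controls. Compounds had been added straight into paddy water over 2-leaf-stage plants flooded to 3 cm.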

[13] = test system: small-flower umbrella sedge (Cyperus difformis); experiment: Test C flooded paddy test plant response; conditions: Flood, 250 g ai/ha; scale of 0 to 100 where 0 is no effect and 100 is complete control; 13 to 15 days
How it was run: as §3

[14] = test system: ducksalad (Heteranthera limosa); experiment: Test C flooded paddy test plant response; conditions: Flood, 250 g ai/ha; scale of 0 to 100 where 0 is no effect and 100 is complete control; 13 to 15 days
How it was run: as §3

[15] = test system: barnyardgrass (Echinochloa crus-galli); experiment: Test C flooded paddy test plant response; conditions: Flood, 250 g ai/ha; scale of 0 to 100 where 0 is no effect and 100 is complete control; 13 to 15 days
How it was run: as §3

[16] = post-emergence, Postemergence, 1000 g ai/ha, 0 to 100 scale (0 no effect, 100 complete control)
[17] = pre-emergence, Preemergence, 1000 g ai/ha, 0 to 100 scale (0 no effect, 100 complete control)
[18] = Postemergence, 1000 g ai/ha, 0 to 100 scale (0 no effect, 100 complete control)
[19] = Preemergence, 1000 g ai/ha, 0 to 100 scale (0 no effect, 100 complete control)
[20] = 125 g ai/ha, postemergence, 0 to 100 scale, 0 no effect, 100 complete control
[21] = 500 g ai/ha, postemergence, 0 to 100 scale, 0 no effect, 100 complete control
[22] = Preemergence, 125 g ai/ha, 0 to 100 scale (0 no effect, 100 complete control)
[23] = Preemergence, 500 g ai/ha, 0 to 100 scale where 0 is no effect and 100 is complete control

Clc1ccc(-c2ccccc2Oc2ncc(Cl)cn2)nc1 [Compound 1, 5-chloro-2-[2-(5-chloro-2-pyridinyl)phenoxy]pyrimidine]
Plant response rating, Rice (rice (Oryza sativa) [1]; 31 g ai/ha): 0
Plant response rating, Rice (rice (Oryza sativa) [1]; 62 g ai/ha): 0
Plant response rating, Rice (rice (Oryza sativa) [1]; 125 g ai/ha): 0
Plant response rating, Rice (rice (Oryza sativa) [1]; 250 g ai/ha): 0
Plant response rating, Sedge, Umbrella ([2]; 31 g ai/ha): 0
Plant response rating, Sedge, Umbrella ([2]; 62 g ai/ha): 0
Plant response rating, Sedge, Umbrella ([2]; 125 g ai/ha): 0
Plant response rating, Sedge, Umbrella ([2]; 250 g ai/ha): 0
Plant response rating, Ducksalad ([3]; 31 g ai/ha): 0
Plant response rating, Ducksalad ([3]; 62 g ai/ha): 0
Plant response rating, Ducksalad ([3]; 125 g ai/ha): 0
Plant response rating, Ducksalad ([3]; 250 g ai/ha): 0
Plant response rating, Barnyardgrass ([4]; 31 g ai/ha): 0
Plant response rating, Barnyardgrass ([4]; 62 g ai/ha): 0
Plant response rating, Barnyardgrass ([4]; 125 g ai/ha): 0
Plant response rating, Barnyardgrass ([4]; 250 g ai/ha): 0
plant injury at 1000 g/ha [5, 16]: 0%
plant injury at 1000 g/ha [5, 17]: 0%
pest or weed control at 1000 g/ha [6, 16]: 60%
pest or weed control at 1000 g/ha [6, 17]: 20%
pest or weed control at 1000 g/ha [7, 16]: 100%
pest or weed control at 1000 g/ha [7, 17]: 80%
pest or weed control at 1000 g/ha [8, 16]: 80%
pest or weed control at 1000 g/ha [8, 17]: 100%
Corn plant response rating (crop injury, 0 = no effect, 100 = complete kill) at 1000 g/ha (corn (Zea mays); [16]): 10%
Corn plant response rating (crop injury, 0 = no effect, 100 = complete kill) at 1000 g/ha (corn (Zea mays); [17]): 0%
pest or weed control at 1000 g/ha [9, 16]: 70%
pest or weed control at 1000 g/ha [9, 17]: 100%
pest or weed control at 1000 g/ha [10, 16]: 70%
pest or weed control at 1000 g/ha [10, 17]: 80%
pest or weed control at 1000 g/ha [11, 16]: 100%
pest or weed control at 1000 g/ha [11, 17]: 100%

FC(F)(F)Oc1cccc(-c2ccccc2Oc2ncc(Cl)cn2)c1 [Compound 40]
Plant response rating, Rice (rice (Oryza sativa) [1]; 31 g ai/ha): 0
Plant response rating, Rice (rice (Oryza sativa) [1]; 62 g ai/ha): 0
Plant response rating, Rice (rice (Oryza sativa) [1]; 125 g ai/ha): 0
Plant response rating, Rice (rice (Oryza sativa) [1]; 250 g ai/ha): 0
Plant response rating, Sedge, Umbrella ([2]; 31 g ai/ha): 0
Plant response rating, Sedge, Umbrella ([2]; 62 g ai/ha): 0
Plant response rating, Sedge, Umbrella ([2]; 125 g ai/ha): 30
Plant response rating, Sedge, Umbrella ([2]; 250 g ai/ha): 50
Plant response rating, Ducksalad ([3]; 31 g ai/ha): 0
Plant response rating, Ducksalad ([3]; 62 g ai/ha): 0
Plant response rating, Ducksalad ([3]; 125 g ai/ha): 20
Plant response rating, Ducksalad ([3]; 250 g ai/ha): 40
Plant response rating, Barnyardgrass ([4]; 31 g ai/ha): 0
Plant response rating, Barnyardgrass ([4]; 62 g ai/ha): 0
Plant response rating, Barnyardgrass ([4]; 125 g ai/ha): 0
Plant response rating, Barnyardgrass ([4]; 250 g ai/ha): 0
Plant response rating, Wheat [5, 18]: 10
Plant response rating, Wheat [5, 19]: 0
Plant response rating, Morningglory [6, 18]: 100
Plant response rating, Morningglory [6, 19]: 0
Plant response rating, Velvetleaf [7, 18]: 100
Plant response rating, Velvetleaf [7, 19]: 90
Plant response rating, Foxtail, Giant [8, 18]: 50
Plant response rating, Foxtail, Giant [8, 19]: 100
Plant response rating, Corn (corn (Zea mays); [18]): 20
Plant response rating, Corn (corn (Zea mays); [19]): 0
Plant response rating, Crabgrass, Large [9, 18]: 50
Plant response rating, Crabgrass, Large [9, 19]: 70
Plant response rating, Barnyardgrass [10, 18]: 30
Plant response rating, Barnyardgrass [10, 19]: 50
Plant response rating, Pigweed [11, 18]: 100
Plant response rating, Pigweed [11, 19]: 100

N#Cc1cccc(-n2cc(Br)cn2)c1Oc1ncc(Cl)cn1 [Compound 209]
Rice plant response rating (rice (Oryza sativa) [12]): 0
Sedge, Umbrella plant response rating [13]: 0
Ducksalad plant response rating [14]: 0
Barnyardgrass plant response rating [15]: 0
Plant response rating, Wheat [5, 20]: 0
Plant response rating, Wheat [5, 21]: 0
Wheat plant response rating [5, 22]: 0
Plant response rating, Wheat [5, 23]: 0
Plant response rating, Morningglory [6, 20]: 30
Plant response rating, Morningglory [6, 21]: 30
Morningglory plant response rating [6, 22]: 0
Plant response rating, Morningglory [6, 23]: 0
Plant response rating, Velvetleaf [7, 20]: 30
Plant response rating, Velvetleaf [7, 21]: 30
Velvetleaf plant response rating [7, 22]: 0
Plant response rating, Velvetleaf [7, 23]: 0
Plant response rating, Foxtail, Giant [8, 20]: 0
Plant response rating, Foxtail, Giant [8, 21]: 30
Foxtail, Giant plant response rating [8, 22]: 30
Plant response rating, Foxtail, Giant [8, 23]: 100
Plant response rating, Corn (corn (Zea mays); [20]): 0
Plant response rating, Corn (corn (Zea mays); [21]): 0
Corn plant response rating (corn (Zea mays); [22]): 0
Plant response rating, Corn (corn (Zea mays); [23]): 0
Plant response rating, Crabgrass, Large [9, 20]: 10
Plant response rating, Crabgrass, Large [9, 21]: 30
Crabgrass, Large plant response rating [9, 22]: 70
Plant response rating, Crabgrass, Large [9, 23]: 100
Plant response rating, Barnyardgrass [10, 20]: 0
Plant response rating, Barnyardgrass [10, 21]: 0
Barnyardgrass plant response rating [10, 22]: 0
Plant response rating, Barnyardgrass [10, 23]: 10
Plant response rating, Pigweed [11, 20]: 90
Plant response rating, Pigweed [11, 21]: 100
Pigweed plant response rating [11, 22]: 90
Plant response rating, Pigweed [11, 23]: 100
